Results on 19 compounds are retold here after US11427553B2, “Dihydrooxadiazinones” (Bayer Aktiengesellschaft, priority 2017, dated 2022).

One data set concerns HeLa cells. The experiment in a line: Assay 1 cell proliferation measurement (CTG, 72 h), HeLa. Conditions: Homo sapiens, HeLa; Assay 1, 72 h, Cell Titer Glo; read-out: HeLa IC50 [nM] (Cervical cancer). Type of data set: cell-based, human. The method, boiled down:
(§1)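 CTG luminescence readout after 72 h compound exposure at 37 °C; 10-point 2.5-fold dilutions from 100 nM max final; DMSO 0.3% vehicle. IC50 from 4-parameter fit, normalised to 0 h plate (max inhibition) and DMSO (min inhibition).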
For orientation: In ATP-based viability assays light output follows the ATP content of the culture.

A further data set has as its system SK-MEL-3 cells. Briefly: Assay 1 cell proliferation measurement (CTG, 72 h), SK-MEL-3. In kind it is cell-based, human. Conditions: Homo sapiens, SK-MEL3; Assay 1, 72 h, Cell Titer Glo; read-out: SK-MEL-3 IC50 [nM] (melanoma). The method, boiled down: as §1
Another data set addresses human full length PDE3A (Homo sapiens (Human), UniProt Q14432). The experiment in a line: Assay 4 PDE3A enzyme inhibition (3H-cAMP SPA). Type of data set: biochemical. As to conditions: Sf9 cell extract. The method, boiled down: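 Enzyme: Sf9 extract with overexpressed full-length PDE3A; substrate [8-3H]cAMP, 0.025 μCi/well; 60 min, room temperature, Tris/HCl pH 7.5 buffer with MgCl2, EDTA, BSA.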

Another data set concerns the target human full length PDE3B (Homo sapiens (Human), UniProt Q13370). Briefly: Assay 5 PDE3B enzyme inhibition (3H-cAMP SPA). Type of data set: biochemical. As to conditions: Sf9 cell extract. In outline: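 Compounds in DMSO are mixed with diluted PDE3B extract from Sf9 cells, and reactions start on adding tritiated cAMP. After 60 min at room temperature, yttrium scintillation proximity beads terminate hydrolysis and signal is counted; IC50 values come from sigmoidal dose-response curves.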

Data set [1] can be described thus: Assay 6 in vitro metabolic stability in cryopreserved human hepatocytes (CL, Fmax). Type of data set: in vitro ADME. Conditions: 1 μM test compound; for Clblood: hepatic in vivo blood clearance calculated (well-stirred) from half-life in cryopreserved human hepatocytes; for Fmax: maximal oral bioavailability calculated from half-life in cryopreserved human hepatocytes. Here is the method: Assay 6 Method for Human Cryo Hepatocytes:
Investigation of In Vitro Metabolic Stability in Cryopreserved Human Hepatocytes (Including Calculation of Hepatic In Vivo Blood Clearance (CL) and Maximal Oral Bioavailability (Fmax))
Cryopreserved Hepatocytes (e.g. purchased from Celsis InVitroTechnologies) were briefly thawed, washed with 45 mL pre-warmed in in vitro GRO HT medium and centrifuged for 5 min at 50×g. The cell pellet was resuspended in 5 ml of Krebs-Henseleit […] (KHB). Cell viability was determined by trypan blue exclusion.
For the metabolic stability assay liver cells were distributed in WME containing 5% FCS to glass vials at a density of 1.0×10^6 vital cells/ml. The test compound was added to a final concentration of 1 μM. During incubation, the hepatocyte suspensions were continuously shaken at 580 rpm and aliquots were taken at 2, 8, 16, 30, 45 and 90 min, to which equal volumes of cold methanol were immediately added. Samples were frozen at −20° C. over night, after subsequently centrifuged for 15 minutes at 3000 rpm and the supernatant was analyzed with an Agilent 1290 HPLC-system with LCMS/MS detection.
The half-life of a test compound was determined from the concentration-time plot. From the half-life the intrinsic clearances were calculated. Together with the additional parameters liver blood flow, amount of liver cells in vivo and in vitro. The hepatic in vivo blood clearance (CL) and the maximal oral bioavailability (Fmax) was calculated.

Bounds are passed on as bounds.

human full length PDE3A, sequence (Q14432 whole entry): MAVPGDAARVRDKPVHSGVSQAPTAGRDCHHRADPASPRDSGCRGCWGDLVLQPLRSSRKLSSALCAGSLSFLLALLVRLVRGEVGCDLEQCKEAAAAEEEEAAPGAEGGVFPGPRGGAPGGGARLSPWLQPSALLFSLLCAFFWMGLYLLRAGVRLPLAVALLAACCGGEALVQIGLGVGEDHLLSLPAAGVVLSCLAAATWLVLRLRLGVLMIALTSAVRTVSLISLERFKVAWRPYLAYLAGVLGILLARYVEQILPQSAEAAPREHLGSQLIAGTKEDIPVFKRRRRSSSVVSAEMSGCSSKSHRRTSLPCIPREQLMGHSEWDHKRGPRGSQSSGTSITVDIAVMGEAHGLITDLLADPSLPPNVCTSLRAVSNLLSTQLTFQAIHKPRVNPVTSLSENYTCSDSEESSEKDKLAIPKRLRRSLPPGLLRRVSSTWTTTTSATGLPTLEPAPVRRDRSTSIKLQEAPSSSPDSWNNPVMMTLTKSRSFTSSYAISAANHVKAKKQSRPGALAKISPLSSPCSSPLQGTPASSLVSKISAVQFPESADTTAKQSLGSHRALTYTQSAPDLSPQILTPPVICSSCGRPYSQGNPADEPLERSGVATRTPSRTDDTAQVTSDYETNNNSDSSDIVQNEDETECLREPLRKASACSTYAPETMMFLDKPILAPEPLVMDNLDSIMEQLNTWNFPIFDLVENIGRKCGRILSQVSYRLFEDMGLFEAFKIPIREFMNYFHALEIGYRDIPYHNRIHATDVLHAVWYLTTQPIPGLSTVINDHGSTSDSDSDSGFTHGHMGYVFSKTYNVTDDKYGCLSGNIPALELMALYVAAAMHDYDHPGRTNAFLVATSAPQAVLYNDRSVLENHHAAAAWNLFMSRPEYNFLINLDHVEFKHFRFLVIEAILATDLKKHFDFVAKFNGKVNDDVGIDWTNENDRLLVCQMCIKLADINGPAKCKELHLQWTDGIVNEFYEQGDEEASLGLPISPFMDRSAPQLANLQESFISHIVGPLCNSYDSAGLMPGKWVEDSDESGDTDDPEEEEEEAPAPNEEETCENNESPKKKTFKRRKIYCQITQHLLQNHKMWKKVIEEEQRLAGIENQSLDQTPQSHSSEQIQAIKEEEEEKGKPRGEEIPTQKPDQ
human full length PDE3B, sequence (Q13370 whole entry): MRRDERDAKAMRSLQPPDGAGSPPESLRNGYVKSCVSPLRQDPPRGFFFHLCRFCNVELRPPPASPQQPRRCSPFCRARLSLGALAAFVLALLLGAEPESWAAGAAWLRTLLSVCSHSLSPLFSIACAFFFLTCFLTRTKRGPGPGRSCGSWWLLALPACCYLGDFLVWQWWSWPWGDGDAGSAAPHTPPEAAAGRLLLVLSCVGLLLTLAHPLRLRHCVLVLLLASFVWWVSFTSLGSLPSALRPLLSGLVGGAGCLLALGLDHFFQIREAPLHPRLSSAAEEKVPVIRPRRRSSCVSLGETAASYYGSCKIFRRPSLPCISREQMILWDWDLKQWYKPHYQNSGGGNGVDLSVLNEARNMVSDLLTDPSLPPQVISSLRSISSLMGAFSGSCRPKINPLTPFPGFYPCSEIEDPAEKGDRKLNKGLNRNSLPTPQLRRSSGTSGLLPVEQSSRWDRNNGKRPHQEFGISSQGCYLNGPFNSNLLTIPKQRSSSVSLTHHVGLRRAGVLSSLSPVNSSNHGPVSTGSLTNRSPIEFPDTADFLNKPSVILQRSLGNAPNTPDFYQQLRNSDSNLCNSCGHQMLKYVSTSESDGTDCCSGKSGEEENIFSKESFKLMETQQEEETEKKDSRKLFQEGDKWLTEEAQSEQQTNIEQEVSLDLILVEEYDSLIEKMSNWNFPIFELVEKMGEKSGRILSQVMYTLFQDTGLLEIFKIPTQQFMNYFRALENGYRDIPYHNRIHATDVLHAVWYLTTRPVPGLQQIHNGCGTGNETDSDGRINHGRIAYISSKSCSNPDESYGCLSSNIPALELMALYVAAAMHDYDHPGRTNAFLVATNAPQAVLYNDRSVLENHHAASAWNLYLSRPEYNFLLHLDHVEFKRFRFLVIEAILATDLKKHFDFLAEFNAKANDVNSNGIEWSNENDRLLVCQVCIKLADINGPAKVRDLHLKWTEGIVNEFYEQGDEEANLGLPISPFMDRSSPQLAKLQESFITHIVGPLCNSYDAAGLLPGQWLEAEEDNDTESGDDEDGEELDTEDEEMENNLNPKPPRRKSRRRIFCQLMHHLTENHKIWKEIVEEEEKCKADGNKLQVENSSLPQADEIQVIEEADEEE

For orientation: IC50 means the concentration needed to halve the response being measured. On to `Cc1cc(F)ccc1-c1ccc(C2=NNC(=O)OC2)cc1C` [Example 9, 5-(4′-Fluoro-2,2′-dimethylbiphenyl-4-yl)-3,6-dihydro-2H-1,3,4-oxadiazin-2-one], for which the IC50 in the data set with HeLa cells was 15 nM; in the data set with SK-MEL-3 cells, 33 nM; on human full length PDE3A, 440 nM; at human full length PDE3B, 240 nM. Further, the Clblood in data set [1] is recorded as 0.19 L/h/kg. Besides, the Fmax in data set [1] was 85%.
For `O=C1NN=C(c2ccc(-c3ccc(Cl)cc3)c(OC(F)(F)F)c2)CO1` [Example 71, 5-[4′-Chloro-2-(trifluoromethoxy)biphenyl-4-yl]-3,6-dihydro-2H-1,3,4-oxadiazin-2-one], the IC50 is 20 nM with HeLa cells, 38 nM with SK-MEL-3 cells, more than 1000 nM against human full length PDE3A and more than 1000 nM on human full length PDE3B. In data set [1], the Clblood is on record as 0.19 L/h/kg. Besides, the Fmax in data set [1] is 86%.
Take `O=C1NN=C(c2ccc(-c3ccc(F)cc3F)c(F)c2)CO1` [Example 111, 5-(2,2′,4′-Trifluoro[1,1′-biphenyl]-4-yl)-3,6-dihydro-2H-1,3,4-oxadiazin-2-one]: the IC50 in the data set on HeLa cells worked out at 2 nM; with SK-MEL-3 cells it was 4 nM; on human full length PDE3A, 72 nM; against human full length PDE3B it was 81 nM. In data set [1], the Clblood was 0.32 L/h/kg. Besides, the Fmax in data set [1] was 76%.
For the compound `COC/C=C/c1ccc(C2=NNC(=O)OC2)cc1C(F)(F)F` [Example 140, 5-{4-[3-Methoxyprop-1-en-1-yl]-3-(trifluoromethyl)phenyl}-3,6-dihydro-2H-1,3,4-oxadiazin-2-one], the IC50 turned out to be 1 nM in the data set on HeLa cells, 1 nM with SK-MEL-3 cells, 58 nM at human full length PDE3A and 80 nM at human full length PDE3B. Further, the Clblood in data set [1] is 0.51 L/h/kg. Also, in data set [1], the Fmax was 61%.
On to `Cc1cc(F)ccc1-c1ccc(C2=NNC(=O)OC2)cc1F` [Example 162, 5-(2,4′-Difluoro-2′-methyl[1,1′-biphenyl]-4-yl)-3,6-dihydro-2H-1,3,4-oxadiazin-2-one], for which the IC50 in the data set on HeLa cells worked out at 4 nM; in the data set with SK-MEL-3 cells it was 7 nM; at human full length PDE3A it was 210 nM; against human full length PDE3B, 120 nM. For the same compound, the Clblood in data set [1] was 0.62 L/h/kg. For the same compound, the Fmax in data set [1] is recorded as 53%.
As to `O=C1NN=C(c2ccc(-c3cnn(C(F)F)c3)c(C(F)F)c2)CO1` [Example 195, 5-{3-(Difluoromethyl)-4-[1-(difluoromethyl)-1H-pyrazol-4-yl]phenyl}-3,6-dihydro-2H-1,3,4-oxadiazin-2-one], the IC50 in the data set with HeLa cells is 2 nM; in the data set with SK-MEL-3 cells, 5 nM; at human full length PDE3A, 58 nM; at human full length PDE3B it was 77 nM. Besides, in data set [1], the Clblood is on record as less than 0.01 L/h/kg. Also, the Fmax in data set [1] was 100%.
For the compound `O=C1NN=C(c2ccc(-c3ccc(F)cc3)c(C(F)F)c2)CO1` [Example 198, 5-[2-(Difluoromethyl)-4′-fluoro[1,1′-biphenyl]-4-yl]-3,6-dihydro-2H-1,3,4-oxadiazin-2-one], the IC50 in the data set with HeLa cells turned out to be 6 nM; in the data set on SK-MEL-3 cells it was 14 nM; at human full length PDE3A, 170 nM; against human full length PDE3B, 130 nM. For the same compound, the Clblood in data set [1] was 0.44 L/h/kg. Further, the Fmax in data set [1] is listed as 67%.
Take `O=C1NN=C(c2ccc(-c3ccc(Cl)cc3)c(C(F)F)c2)CO1` [Example 199, 5-[4′-Chloro-2-(difluoromethyl)[1,1′-biphenyl]-4-yl]-3,6-dihydro-2H-1,3,4-oxadiazin-2-one]: the IC50 in the data set with HeLa cells came to 2 nM; with SK-MEL-3 cells, 5 nM; at human full length PDE3A, 210 nM; against human full length PDE3B, 200 nM. The Clblood in data set [1] is 0.94 L/h/kg. For the same compound, in data set [1], the Fmax is reported as 29%.
Consider `CC1(O)CN(c2ccc(C3=NNC(=O)OC3)cc2C(F)(F)F)C1` [Example 203, 5-[4-(3-Hydroxy-3-methylazetidin-1-yl)-3-(trifluoromethyl)phenyl]-3,6-dihydro-2H-1,3,4-oxadiazin-2-one], for which the IC50 amounted to 1 nM in the data set with HeLa cells, 2 nM in the data set on SK-MEL-3 cells, 37 nM at human full length PDE3A and 88 nM against human full length PDE3B. For the same compound, the Clblood in data set [1] is given as 0.61 L/h/kg. Further, the Fmax in data set [1] was 54%.
Consider `CC(C)(C)Nc1ccc(C2=NNC(=O)OC2)cc1C(F)(F)F` [Example 224, 5-[4-(tert-Butylamino)-3-(trifluoromethyl)phenyl]-3,6-dihydro-2H-1,3,4-oxadiazin-2-one], for which the IC50 in the data set with HeLa cells is 2 nM; in the data set with SK-MEL-3 cells, 3 nM; against human full length PDE3A it was 165 nM; on human full length PDE3B, 200 nM. For the same compound, in data set [1], the Clblood is on record as 0.35 L/h/kg. Further, the Fmax in data set [1] is on record as 74%.
As for `NC(=O)CNc1ccc(C2=NNC(=O)OC2)cc1C(F)(F)F` [Example 256, N^2-[4-(2-Oxo-3,6-dihydro-2H-1,3,4-oxadiazin-5-yl)-2-(trifluoromethyl)phenyl]glycinamide], the IC50 turned out to be 37 nM with HeLa cells, 63 nM in the data set on SK-MEL-3 cells, 240 nM at human full length PDE3A and 480 nM at human full length PDE3B. In addition, in data set [1], the Clblood is 0.07 L/h/kg. The Fmax in data set [1] is given as 95%.
`CCOCCNc1ccc(C2=NNC(=O)OC2)cc1C(F)(F)F` [Example 260, 5-{4-[(2-Ethoxyethyl)amino]-3-(trifluoromethyl)phenyl}-3,6-dihydro-2H-1,3,4-oxadiazin-2-one]: the IC50 in the data set on HeLa cells worked out at 1 nM; in the data set on SK-MEL-3 cells, 3 nM; on human full length PDE3A, 48 nM; against human full length PDE3B it was 170 nM. Also, the Clblood in data set [1] is 0.86 L/h/kg. For the same compound, in data set [1], the Fmax was 35%.
Consider `CC(C)Cc1ccc(C2=NNC(=O)OC2)cc1C(F)(F)F` [Example 268, 5-[4-(2-Methylpropyl)-3-(trifluoromethyl)phenyl]-3,6-dihydro-2H-1,3,4-oxadiazin-2-one], for which the IC50 was 1 nM with HeLa cells, 3 nM in the data set on SK-MEL-3 cells, 138 nM at human full length PDE3A and 110 nM against human full length PDE3B. For the same compound, in data set [1], the Clblood is given as 0.30 L/h/kg. Besides, in data set [1], the Fmax was 78%.
Turning to `CC(C)c1ccc(C2=NNC(=O)OC2)cc1C(F)(F)F` [Example 270, 5-[4-(Propan-2-yl)-3-(trifluoromethyl)phenyl]-3,6-dihydro-2H-1,3,4-oxadiazin-2-one], the IC50 worked out at 9 nM with HeLa cells, 15 nM in the data set on SK-MEL-3 cells, 55 nM on human full length PDE3A and 170 nM on human full length PDE3B. For the same compound, the Clblood in data set [1] was less than 0.01 L/h/kg. In data set [1], the Fmax was 100%.
For the compound `CCC(CNc1ccc(C2=NNC(=O)OC2)cc1C(F)(F)F)OC` (stereo not shown) [Example 281, 5-{4-[(2-methoxybutyl)amino]-3-(trifluoromethyl)phenyl}-3,6-dihydro-2H-1,3,4-oxadiazin-2-one], the IC50 with HeLa cells worked out at 12 nM. Further, in data set [1], the Clblood is 0.85 L/h/kg and the Fmax is given as 35%.
In the case of `C[C@@H]1OC(=O)NN=C1c1ccc(F)c(C(F)(F)F)c1` [Intermediate 75, (6S)-5-(-[(4-Fluoro-3-(trifluoromethyl)phenyl)-)]-6-methyl-3,6-dihydro-2H-1,3,4-oxadiazin-2-one], the IC50 was determined as 22 nM with HeLa cells, 45 nM with SK-MEL-3 cells, 240 nM against human full length PDE3A and 710 nM against human full length PDE3B.
Regarding `Cc1cc(C2=NNC(=O)OC2)ccc1Cl` [Intermediate 76, 5-(4-Chloro-3-methylphenyl)-3,6-dihydro-2H-1,3,4-oxadiazin-2-one], the concentration for half-maximal inhibition (IC50) in the data set with HeLa cells is 40 nM; in the data set on SK-MEL-3 cells, 75 nM; against human full length PDE3A it was 375 nM; against human full length PDE3B it was 130 nM.
For the compound `O=C1NN=C(c2ccc(Br)c(C(F)F)c2)CO1` [Intermediate 77, 5-[4-Bromo-3-(difluoromethyl)phenyl]-3,6-dihydro-2H-1,3,4-oxadiazin-2-one], the IC50 in the data set with HeLa cells was 40 nM; with SK-MEL-3 cells, 65 nM; against human full length PDE3A it was 150 nM; on human full length PDE3B, 330 nM.
In the case of `O=C1NN=C(c2ccc(Br)c(C(F)(F)F)c2)CO1` [Intermediate 78, 5-[4-bromo-3-(trifluoromethyl)phenyl]-3,6-dihydro-2H-1,3,4-oxadiazin-2-one], the IC50 came to 8 nM with HeLa cells, 20 nM in the data set on SK-MEL-3 cells, 140 nM against human full length PDE3A and 180 nM on human full length PDE3B.
